Measured values from patent US8834841B2, “Imaging agents” (priority 2005, dated 2014).

How the values were obtained:
DU145 prostate carcinoma = test: in vitro amino acid uptake, DU145 cells; type: cell-based, human
Source text: (§1) The inventive compounds have been evaluated in vitro for tumor binding specificity (i.e. uptake cells) using a variety of tumor cell lines available in the art, along with reference compounds such as Me-AIB and BCH. Detailed description of these assays can be found in Martarello et al. (2002) Journal of Medicinal Chemistry, 45:2250-2259 and McConathy et al. (2003) Nuclear Medicine and Biology, 30:477-490. These, so called “amino acid uptake studies” are typically carried out with radiolabeled compounds in at least five phenotypically different human tumor cell lines (e.g. A549 lung carcinoma, MB468 breast carcinoma, DU145 prostate carcinoma, SKOV3 ovarian carcinoma, and U87 glial blastoma). These tumor cell lines can be grown either in vitro or in vivo with severe combined immunodeficiency (SCID) mice as a host. The fore-mentioned tumor cell lines are available at the Winship Cancer Institute of Emory University.
(§2) For the in vitro amino acid uptake studies, all cells can be grown to monolayer confluency in T-175 culture flasks [Corning, Corning, N.Y.] (approx. 1×10^8 cells/flask) in Dulbecco's Modified Eagle's Medium (DMEM) [Sigma, St. Louis, Mo.] in a humidified incubator (37° C., 5% CO2/95% air). Media are supplemented with 10% fetal calf serum [Hyclone, Logan, Utah], and antibiotics (10,000 U/ml penicillin and 10 mg/ml streptomycin) (Sigma, St. Louis, Mo.). For tissue culture passage, monolayer cells are detached by gentle trypsinization, resuspended in complete media, and split 1:10 into new T-flasks. […]
(§3) In the in vitro studies the uptake rate of each amino acid compound is measured in each tumor line, as well as the dominant transport mechanisms of each tumor cell line. After trypsinization, cells are resuspended in serum-free media, then counted on a hemocytometer, with viability assessed through Trypan blue staining. […] The vials are placed in a Cobra-II gamma counter (Packard, Meriden, Conn.), with the activity per cell number determined. […] Saline washes are performed as described above, and the filtered cells radioactivity determined on the gamma counter. […]

[1] = test system: type “L” type large-neutral amino acid transport system; test: in vitro uptake studies in human tumor cells, summary; type: cell-based; conditions: U87, DU145, A549, SKOV3, MB468 cells (Table 1)
Source text: The inventive compounds have been evaluated in vitro for tumor binding specificity (i.e. uptake cells) using a variety of tumor cell lines available in the art, along with reference compounds such as Me-AIB and BCH. Detailed description of these assays can be found in Martarello et al. (2002) Journal of Medicinal Chemistry, 45:2250-2259 and McConathy et al. (2003) Nuclear Medicine and Biology, 30:477-490. These, so called “amino acid uptake studies” are typically carried out with radiolabeled compounds in at least five phenotypically different human tumor cell lines (e.g. A549 lung carcinoma, MB468 breast carcinoma, DU145 prostate carcinoma, SKOV3 ovarian carcinoma, and U87 glial blastoma). These tumor cell lines can be grown either in vitro or in vivo with severe combined immunodeficiency (SCID) mice as a host. […]
as §3

SKOV3 ovarian carcinoma = test: in vitro amino acid uptake, SKOV3 cells; type: cell-based, human
Source text: as §1, §2, §3

SMILES: NC1(C(=O)O)CCC1[18F] [Anti-R,S 2-[^18F]FACBC, (R,S) anti-1-amino-2-[^18F]fluorocyclobutyl-1-carboxylic acid]
- % Dose Uptake/0.5e6 Cells (DU145 prostate carcinoma; DU145, No inhibitor): 6.40 +/− 0.60 % Dose Uptake/0.5e6 Cells
- % Dose Uptake/0.5e6 Cells (DU145 prostate carcinoma; DU145, inhibitor BCH (10 mM)): 1.78 +/− 0.20 % Dose Uptake/0.5e6 Cells
- % Dose Uptake/0.5e6 Cells (DU145 prostate carcinoma; DU145, inhibitor MeAlB (10 mM)): 2.07 +/− 0.26 % Dose Uptake/0.5e6 Cells
- uptake by the type “L” type large-neutral amino acid transport system [1]: high uptake
- % Dose Uptake/0.5e6 Cells (SKOV3 ovarian carcinoma; SKOV3, No inhibitor): 2.16 +/− 0.14 % Dose Uptake/0.5e6 Cells
- % Dose Uptake/0.5e6 Cells (SKOV3 ovarian carcinoma; SKOV3, inhibitor BCH (10 mM)): 1.74 +/− 0.01 % Dose Uptake/0.5e6 Cells
- % Dose Uptake/0.5e6 Cells (SKOV3 ovarian carcinoma; SKOV3, inhibitor MeAlB (10 mM)): 0.75 +/− 0.01 % Dose Uptake/0.5e6 Cells
